SMILES strings stand for the structures. Like-named read-outs stand apart in the source and are kept apart here.

The nature of data set [1]: Plasma pharmacokinetics in SD rats after single intragastric administration (Example 7). In kind it is in vivo. To be noted: intragastric 1 mg/kg; for MRT inf: read-out: MRT0-∞. On the procedure:
The in vivo absorption process and characteristics of the free base and four salts thereof (sulfate, hydrochloride salt, phosphate, maleate) of compound (I) in rats were studied. The pharmacokinetics of a single intragastric administration of 1 mg/kg of a compound of Formula I and four salts thereof (calculated by free base concentration in salt form) were studied in SD rats.
SD rats were given a single intragastric administration of 1 mg/kg free base of Example 1 and four salts thereof (including hydrochloride salt from Example 2, sulfate from Example 3, phosphate from Example 4 and maleate from Example 5). There were 4 male rats in each group. The concentration of the compound of Formula I in plasma was determined, and the pharmacokinetic parameters were calculated according to the concentration-time curve.

Data set [2] is described as follows: In vivo individual difference analysis: individual plasma concentration versus time in rats (Example 8). Also on record: species or system SD rats. To be noted: intragastric 1 mg/kg; for Plasma Concentrations of Compound of Formula I: listed as Hydrochloride Salt of Compound of Formula I. Here is the method: Compound of Formula I and salts thereof (sulfate, hydrochloride salt, phosphate, maleate), supplied by Shanghai Jingxin Biopharmaceutical Co., Ltd. • Strain: SD rats; Gender: male; Body weight: about 250 grams; Source: shanghai Jiesijie Experimental Animal Co., Ltd Route: single intragastric administration; Capacity: measured in 10 mL/kg body weight Preparation: weighing appropriate amount of the free base or salt of the compound of Formula I, adding a small amount of 0.5% CMC-Na to grind, adding 0.5% CMC-Na to the volume. The concentration is measured as the base. 20 SD rats were divided into 5 groups with 4 rats in each group, fasted for 12 h and drank freely before administration. […] The blood was anticoagulated with 1% heparin, the plasma was separated by 8000 rpm centrifugation for 4 min and stored at -40° C. for testing. LC-MS/MS Method. Pharmacokinetic parameters after administration in rats were calculated using a non-compartmental model of DAS 2.0 software.

The nature of data set [3]: Hygroscopicity (DVS) experiment, 25° C./80% relative humidity. Format: physicochemical. To be noted: for Hygroscopicity / Vapor sorption: 25° C./80% relative humidity; for hygroscopicity (summary in words): within one week. Here is the method:
Dynamic vapor sorption curves were collected on a DVS Intrinsic by SMS (Surface Measurement Systems).
20 mg sample of the crystal forms of the Examples and Comparative Examples are placed in the environment of 25° C./80% relative humidity for a dynamic vapor sorption (DVS) test, and the test results […] are shown in Table 5.

Another data set can be described thus: solubility in water. In kind it is physicochemical.
The nature of data set [4]: Crystal form stability on heating (XRPD before and after heating). In kind it is physicochemical.
[5] abbreviates: male, SD, rat, plasma, po, 1 mg/kg, Mean ± SD, non-compartmental model.
Where [6] appears, read: male, SD, rat, plasma, po, 1 mg/kg, Mean ± SD, non-compartmental model, read-out: Tmax.
Setting [7] is: DVS, listed as Example 2 hydrochloride salt.
The mark [8] stands for this setting: Mean ± SD, non-compartmental model, listed as Phosphate.
The mark [9] stands for this setting: DVS, listed as Example 4 phosphate.

What is called AUC is concentration integrated over time. Lower therefore signals low exposure. A word on the AUC(0-inf): it is the area under the concentration-time curve extrapolated to infinity. In general, Cmax refers to the maximum level reached in the sampled fluid or tissue. In general, half-life refers to how long it takes for the measured level to halve. Higher therefore signals slow decline. Broadly, the Tmax is the time from dosing to the highest level. On to `CN(C)C(=O)N[C@H]1CC[C@H](CCN2CCN(c3cccc4ccsc34)CC2)CC1` [Example 2, N′-[trans-4-[2-[7-(benzo[b]thiophene)-7-piperazinyl]ethyl]cyclohexyl]-N,N-dimethylurea], for which the AUC in data set [1] (setting [5]) was 96.9 ± 29.3 ng·h/mL. This molecule yielded an AUC(0-inf) in data set [1] (setting [5]) of 99.1 ± 28.9 ng·h/mL. This molecule had a Cmax in data set [1] (setting [5]) of 36.5 ± 13.1 ng/mL. This molecule had a half-life in data set [1] (setting [5]) of 4.72 ± 2.66 h. Further, the MRT inf in data set [1] (setting [5]) is 4.27 ± 2.2 h. Moreover, the Tmax in data set [1] (setting [6]) came to 0.625 ± 0.25 h. Also, the “Plasma Concentrations of Compound of Formula I” value (from here on “Plasma Concentrations”) is reported as 29.4 ± 16.4 ng/mL in data set [2] (0.333 h after administration, Mean ± SD); 37.6 ng/mL in data set [2] (0.333 h after administration, rat 1♂); 25.9 ng/mL in data set [2] (0.333 h after administration, rat 2♂); 8.18 ng/mL in data set [2] (0.333 h after administration, rat 3♂); 45.9 ng/mL in data set [2] (0.333 h after administration, rat 4♂); 35.1 ± 15.6 ng/mL in data set [2] (0.5 h after administration, Mean ± SD). In addition, the “Plasma Concentrations” value in data set [2] (0.5 h after administration, rat 1♂) is recorded as 48.3 ng/mL; in data set [2] (0.5 h after administration, rat 2♂), 30.6 ng/mL; in data set [2] (0.5 h after administration, rat 3♂) it was 15.0 ng/mL; in data set [2] (0.5 h after administration, rat 4♂), 46.4 ng/mL; in data set [2] (1 h after administration, rat 1♂), 32.4 ng/mL; in data set [2] (1 h after administration, rat 2♂), 25.3 ng/mL. In addition, the “Plasma Concentrations” value in data set [2] (1 h after administration, rat 3♂) is reported as 20.8 ng/mL; in data set [2] (1 h after administration, rat 4♂) it was 42.7 ng/mL. Further, the Hygroscopicity result in data set [3] (setting [7]) is “Almost no”. For the same molecule, in data set [3] (setting [7]), the Vapor sorption was 0.21%. The “hygroscopicity (summary in words)” value in data set [3] (DVS) is on record as “almost no hygroscopicity or slight hygroscopicity”. The solubility in water result in the data set “solubility in water” (listed as hydrochloride salt Form B) is “greater than 4.6 mg/ml”.
Turning to `CN(C)C(=O)N[C@H]1CC[C@H](CCN2CCN(c3cccc4ccsc34)CC2)CC1` [Example 4, N′-[trans-4-[2-[7-(benzo[b]thiophene)-7-piperazinyl]ethyl]cyclohexyl]-N,N-dimethylurea], in data set [1] (setting [8]), the “MRT0-∞” value was 3.06 ± 0.434 h, the Tmax is given as 0.833 ± 0.333 h and the t1/2 is 3.25 ± 1.23 h. Besides, in data set [3] (setting [9]), the Hygroscopicity entry is recorded as “Slight” and the Vapor sorption is listed as 0.61%. Moreover, in “solubility in water” (listed as phosphate Form A), the solubility in water result is “greater than 7.6 mg/ml”.
A word on the solubility: it is how much of the substance goes into solution per volume. `CN(C)C(=O)N[C@H]1CC[C@H](CCN2CCN(c3cccc4ccsc34)CC2)CC1.O=C(O)/C=C\C(=O)O` [Example 5, N′-[trans-4-[2-[7-(benzo[b]thiophene)-7-piperazinyl]ethyl]cyclohexyl]-N,N-dimethylurea]: in data set [1] (compared with other salts), the “bioavailability (in words)” value is “highly bioavailable” and the “half-life (in words)” value is given as “relatively long half-life”. In data set [1] (setting [5]), this molecule had an AUC of 124 ± 5.79 ng·h/mL, a total exposure AUC(0-inf) of 125 ± 7 ng·h/mL, a Cmax of 45.4 ± 2.81 ng/mL and a half-life of 4.67 ± 2.17 h. The MRT inf in data set [1] (setting [5]) amounted to 3.07 ± 0.531 h. The Tmax in data set [1] (setting [6]) came to 0.75 ± 0.289 h. In addition, the “individual difference of plasma concentration” value in data set [2] (compared with other salts) is reported as “smallest”. In data set [3] (DVS), the “hygroscopicity compared with other salts” value is “less hygroscopic than other salts”, the Hygroscopicity entry is “Almost no”, the Vapor sorption is recorded as 0.12% and the “hygroscopicity (summary in words)” value was “almost no hygroscopicity or slight hygroscopicity”. Further, the “The crystal form changes after DVS testing or not” value in data set [3] (after DVS testing) was “No”. The solubility in “solubility in water” was more than 2600 µg/mL.
Turning to `CN(C)C(=O)N[C@H]1CC[C@H](CCN2CCN(c3cccc4ccsc34)CC2)CC1` [Comparative Example 12, N′-[trans-4-[2-[7-(benzo[b]thiophene)-7-piperazinyl]ethyl]cyclohexyl]-N,N-dimethylurea], in data set [4] (compared with maleate Form A, after being heated), the “stability of the crystal form” value is on record as “lower than that of maleate Form A”. For the same molecule, in data set [4] (heated to 150° C. and cooled to room temperature, XRPD), the “crystal form after heating” value is “turned to maleate Form A”.
